Test systems include NCI/ADR-RES ovarian; CAKI-1 renal; SR leukemia; NCI-H23 lung; A549 NSCLC; COLO 205 colon; LOX IMVI melanoma; PC-3 prostate; SN12C renal.
Common to all, as to experiment: growth of human tumour cells (NCI), 48 h

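Protocol summary: plate cells (96-well), add compound at 5 concentrations, incubate 48 h, interpolate endpoints linearly. Abbreviation: GI50, concentration required for 50% inhibition of growth. TGI: concentration producing complete growth inhibition.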

As to `CCc1nc(C)cn1C(=O)OCc1nc2nc(Cl)nc(N3CCOCC3)c2[nH]1`, the GI50 in the assay with NCI/ADR-RES ovarian was 2.64 µM; in the assay on CAKI-1 renal, 0.406 µM; in the assay on SR leukemia, 0.288 µM; with NCI-H23 lung, 1.55 µM; with A549 NSCLC, 1.83 µM; in the assay with COLO 205 colon it was 1.37 µM. The GI50 is 1.02 µM in the assay on LOX IMVI melanoma, 1.25 µM in the assay with PC-3 prostate and 1.35 µM in the assay on SN12C renal. The TGI in the assay on NCI/ADR-RES ovarian was 9.02 µM; in the assay on CAKI-1 renal, 1.71 µM; in the assay on SR leukemia, more than 100 µM; in the assay on NCI-H23 lung it was 3.35 µM; in the assay with A549 NSCLC, 4.36 µM; in the assay on COLO 205 colon, 2.94 µM. Moreover, the results for the TGI in the assay on LOX IMVI melanoma, in the assay on PC-3 prostate and in the assay on SN12C renal were 2.33 µM, 3.01 µM and 2.74 µM, respectively.

For `CC(=O)OCC1OC(n2cccnc2=O)C(OC(C)=O)C1OC(C)=O` (stereo not given), the TGI with CAKI-1 renal, in the assay on SR leukemia, in the assay with A549 NSCLC, with COLO 205 colon, in the assay with LOX IMVI melanoma and in the assay with SN12C renal was more than 100 µM in each case.

For the molecule `CC1(C)C(=O)OC(n2cc(F)c(=O)[nH]c2=O)C1=O` (stereo not given), the TGI in the assay with NCI-H23 lung, in the assay on A549 NSCLC, with COLO 205 colon, in the assay with LOX IMVI melanoma and in the assay on SN12C renal was more than 100 µM in each case.

On to `Cc1ccc(S(=O)(=O)OCOS(=O)(=O)c2ccc(C)cc2)cc1`, for which the TGI in the assay with SR leukemia, in the assay on NCI-H23 lung, in the assay with A549 NSCLC, with COLO 205 colon, in the assay on LOX IMVI melanoma and in the assay on SN12C renal was more than 100 µM in each case.

As to `N#Cc1c2ccccc2c(Cc2ccc3c(c2)OCCOCCOCCOCCOCCO3)c2ccccc12`, the TGI was 22.2 µM with CAKI-1 renal; more than 100 µM in the assay with SR leukemia; 25.3 µM in the assay on NCI-H23 lung; 16.7 µM in the assay on A549 NSCLC; 22.6 µM with LOX IMVI melanoma; 22.8 µM with SN12C renal.

With `Cc1ccccc1NC(=O)Cc1nc2ccccc2s1`, the TGI in the assay on CAKI-1 renal was 36.8 µM; with SR leukemia, 63 µM; with NCI-H23 lung it was 27.8 µM; in the assay on A549 NSCLC, 33.6 µM; with COLO 205 colon it was more than 100 µM; in the assay on LOX IMVI melanoma it was 30.5 µM. Further, the TGI in the assay on SN12C renal was 30.2 µM.

On to `CC1(C)c2ccccc2N2C(c3ccccc3)=NOC21C` (stereo not given), for which the TGI in the assay with CAKI-1 renal, in the assay with SR leukemia, with NCI-H23 lung, in the assay on A549 NSCLC, in the assay on COLO 205 colon and in the assay with LOX IMVI melanoma was more than 100 µM each time. This molecule also showed a TGI in the assay on SN12C renal of more than 100 µM.

On to `C[P+]1(Cc2ccccc2)CCCC1`, for which the TGI in the assay on SR leukemia, in the assay on NCI-H23 lung, with A549 NSCLC, in the assay on COLO 205 colon, in the assay with LOX IMVI melanoma and with SN12C renal was more than 100 µM in each case.

As for `CCOC(=O)C1=C(OC(OCC)C([Se]c2ccccc2)C(C)C)CCC1` (stereo not given), the TGI in the assay on CAKI-1 renal is more than 100 µM; with SR leukemia, 15.4 µM; in the assay on NCI-H23 lung it was 22.3 µM; with A549 NSCLC, more than 100 µM; in the assay on COLO 205 colon, 31.7 µM; with LOX IMVI melanoma it was 6.93 µM. In the assay with SN12C renal, this molecule came in with a TGI of 25.1 µM.

On to `O=C(NC1CC1)c1c(O)[nH]c(=S)[nH]c1=O`, for which the TGI in the assay on CAKI-1 renal, in the assay with SR leukemia, in the assay with NCI-H23 lung, in the assay on A549 NSCLC, in the assay on COLO 205 colon and in the assay on LOX IMVI melanoma was more than 100 µM throughout. For the same molecule, the TGI in the assay with SN12C renal is more than 100 µM.

As for `CC(=O)[CH-]C(=O)c1ccccc1.CC(=O)[CH-]C(=O)c1ccccc1.Cl.[O-]c1ccnc2ccccc12.[O-]c1ccnc2ccccc12.[Ti+4]`, the GI50 in the assay with CAKI-1 renal was 48.7 µM; in the assay on NCI-H23 lung it was more than 100 µM; in the assay on COLO 205 colon, more than 100 µM; in the assay with LOX IMVI melanoma, more than 100 µM; with SN12C renal it was more than 100 µM. In addition, the TGI with CAKI-1 renal, with NCI-H23 lung, with COLO 205 colon, in the assay on LOX IMVI melanoma and in the assay on SN12C renal was more than 100 µM throughout.

On to `Cc1cccc(NC(=O)C(=O)C(C2OC(=O)c3ccccc32)[N+](=O)[O-])c1C` (stereo not given), for which the TGI in the assay on CAKI-1 renal was 24.2 µM; in the assay on SR leukemia it was more than 100 µM; with NCI-H23 lung, 18.9 µM; with A549 NSCLC, 35.4 µM; in the assay on COLO 205 colon it was 29.1 µM; with LOX IMVI melanoma, 6.26 µM. This molecule gave a TGI with SN12C renal of 18.9 µM.

As to `C/C=C/C(=O)Oc1cccc2cccnc12`, the TGI in the assay on CAKI-1 renal was 93.8 µM; in the assay with SR leukemia, more than 100 µM; with NCI-H23 lung it was 29 µM; with A549 NSCLC it was more than 100 µM; in the assay with COLO 205 colon, 35.9 µM; with LOX IMVI melanoma it was more than 84.6 µM. The TGI in the assay on SN12C renal was more than 78.2 µM.

For the molecule `CC(=O)OC1CCC2OOC1O2` (stereo not given), the TGI in the assay with CAKI-1 renal, in the assay with SR leukemia, in the assay with NCI-H23 lung, in the assay on A549 NSCLC, in the assay with COLO 205 colon and in the assay on LOX IMVI melanoma was more than 100 µM each time. Besides, the TGI in the assay on SN12C renal was more than 100 µM.

Regarding `CN(C)NC(=O)/C(=C/c1ccc(Cl)cc1)NC(=O)c1ccccc1`, the TGI in the assay with CAKI-1 renal, with SR leukemia, with NCI-H23 lung, in the assay with A549 NSCLC, in the assay on COLO 205 colon and in the assay with LOX IMVI melanoma was more than 100 µM throughout. The TGI in the assay on SN12C renal is more than 100 µM.

Consider `Cn1[nH]cc2ccc3nc4ccccc4c(=O)c3c21`, for which the TGI is 86.5 µM in the assay with CAKI-1 renal; more than 100 µM with SR leukemia; 53.4 µM in the assay with NCI-H23 lung; more than 66 µM in the assay with A549 NSCLC; 92.6 µM in the assay with COLO 205 colon; 46.5 µM in the assay on LOX IMVI melanoma. The molecule also displayed a TGI in the assay with SN12C renal of more than 100 µM.

Regarding `CCOC(=O)c1cc(=O)n(C)c(=O)n1C`, the TGI in the assay with CAKI-1 renal, in the assay on NCI-H23 lung, in the assay with A549 NSCLC, with COLO 205 colon, in the assay with LOX IMVI melanoma and in the assay on SN12C renal was more than 100 µM throughout.

As to `O=C1c2ccccc2C(=O)N1CCCOCc1c[nH]c(=O)[nH]c1=O`, the TGI in the assay with CAKI-1 renal, in the assay with NCI-H23 lung, in the assay on A549 NSCLC, in the assay on COLO 205 colon, in the assay with LOX IMVI melanoma and with SN12C renal was more than 100 µM in each case.

As for `COc1cc(OCc2ccccc2)c2c(CCC(=O)O)cc(=O)oc2c1` (tested in a mixture with another compound), the TGI in the assay on NCI/ADR-RES ovarian, in the assay with CAKI-1 renal, in the assay on SR leukemia, in the assay with NCI-H23 lung, in the assay with A549 NSCLC and in the assay with COLO 205 colon was more than 100 µM throughout. The TGI with LOX IMVI melanoma and in the assay with PC-3 prostate was more than 100 µM throughout.

The values above are taken from PubChem BioAssay (NCI).
